Here are results for 12 compounds from patent publication US12162820B2 (TAIWANJ PHARMACEUTICALS CO., LTD., priority 2019, dated 2024).

As a reminder, the inhibition is the relative decrease from the control value, in per cent.

Type in all cases: biochemical
In one test the target is T1, ATX (autotaxin) (Homo sapiens, UniProt Q13822).
T1 construct: purchased Cayman 10803
The test can be described thus: Autotaxin Inhibition Screening Assay (choline release from LPC, LPC-CR). To be noted: for inhibition at 4 µM: 4 μM compound; for inhibition at 20 µM: 20 μM compound; for inhibition at 50 µM: 50 μM compound. The method, boiled down: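 Released choline from 100 μM 14:0 LPC, detected via choline oxidase–HRP–homovanillic acid fluorescence (320/450 nm) kinetically over 90 min, reports activity of 20 ng ATX. Buffer: 50 mM Tris pH 8.0, 50 mM CaCl2, 0.01% Triton X-100; test compounds 4, 20, 50 μM; percent inhibition from blank-subtracted slopes relative to vehicle.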

The target of a further test is T2, HDAC2 (Homo sapiens, UniProt Q92769).
T2 construct: purchased Enzo Life Sciences
As to the kind of experiment: HDAC Inhibition Screening Assay (FLUOR DE LYS Fluorimetric Drug Discovery Kit), HDAC2. Conditions: for inhibition at 2 µM: 2 μM compound; for inhibition at 10 µM: 10 μM compound; for inhibition at 50 µM: 50 μM compound. The method in brief: (§1)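 Recombinant HDAC1, HDAC2 or HDAC3 was incubated with an acetyl-lysine fluorogenic substrate, and a developer was then added to release the fluorophore. Compounds were tested at 2, 10 and 50 μM, with fluorescence read at 360 or 485 nm excitation and 460 or 530 nm emission. Activity was expressed as a percentage of basal control minus baseline.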

The target in another test is T3, HDAC1 (Homo sapiens, UniProt Q13547).
T3 construct: purchased Enzo Life Sciences
The test can be described thus: HDAC Inhibition Screening Assay (FLUOR DE LYS Fluorimetric Drug Discovery Kit), HDAC1. Conditions: for inhibition at 2 µM: 2 μM compound; for inhibition at 10 µM: 10 μM compound; for inhibition at 50 µM: 50 μM compound. The method, boiled down:
as §1

The target of the next test is T4, HDAC3 (Homo sapiens, UniProt O15379).
T4 construct: purchased Enzo Life Sciences
As to the kind of experiment: HDAC Inhibition Screening Assay (FLUOR DE LYS Fluorimetric Drug Discovery Kit), HDAC3. Conditions: for inhibition at 2 µM: 2 μM compound; for inhibition at 10 µM: 10 μM compound; for inhibition at 50 µM: 50 μM compound. The method in brief: as §1

T3 sequence (Q13547 whole entry): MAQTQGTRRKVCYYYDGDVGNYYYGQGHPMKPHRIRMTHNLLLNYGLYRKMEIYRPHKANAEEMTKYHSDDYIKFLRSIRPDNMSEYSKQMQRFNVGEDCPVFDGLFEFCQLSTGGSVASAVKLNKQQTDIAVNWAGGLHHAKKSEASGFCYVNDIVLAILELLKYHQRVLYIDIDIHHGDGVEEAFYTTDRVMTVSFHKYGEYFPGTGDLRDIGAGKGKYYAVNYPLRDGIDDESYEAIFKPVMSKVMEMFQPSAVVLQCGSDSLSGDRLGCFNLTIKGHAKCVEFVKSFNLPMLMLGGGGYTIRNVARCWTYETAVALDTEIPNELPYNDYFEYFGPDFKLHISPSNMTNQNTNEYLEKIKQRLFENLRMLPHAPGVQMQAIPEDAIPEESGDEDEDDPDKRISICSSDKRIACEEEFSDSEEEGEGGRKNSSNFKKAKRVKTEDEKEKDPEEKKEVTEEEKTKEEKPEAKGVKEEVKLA
T2 sequence (Q92769 whole entry): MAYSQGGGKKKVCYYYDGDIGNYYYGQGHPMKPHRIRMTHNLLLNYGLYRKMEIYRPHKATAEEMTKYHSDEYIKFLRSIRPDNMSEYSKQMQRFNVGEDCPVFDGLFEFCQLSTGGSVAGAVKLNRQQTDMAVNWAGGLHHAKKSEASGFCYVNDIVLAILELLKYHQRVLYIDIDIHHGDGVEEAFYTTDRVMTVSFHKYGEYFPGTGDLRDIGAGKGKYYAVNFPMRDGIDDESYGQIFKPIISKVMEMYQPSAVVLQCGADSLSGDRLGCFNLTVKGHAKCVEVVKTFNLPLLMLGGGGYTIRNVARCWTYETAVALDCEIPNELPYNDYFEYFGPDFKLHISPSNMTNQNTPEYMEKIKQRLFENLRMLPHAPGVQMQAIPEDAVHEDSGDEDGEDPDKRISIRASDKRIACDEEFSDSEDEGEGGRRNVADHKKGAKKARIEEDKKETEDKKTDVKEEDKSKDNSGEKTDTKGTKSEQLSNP
T4 sequence (O15379 whole entry): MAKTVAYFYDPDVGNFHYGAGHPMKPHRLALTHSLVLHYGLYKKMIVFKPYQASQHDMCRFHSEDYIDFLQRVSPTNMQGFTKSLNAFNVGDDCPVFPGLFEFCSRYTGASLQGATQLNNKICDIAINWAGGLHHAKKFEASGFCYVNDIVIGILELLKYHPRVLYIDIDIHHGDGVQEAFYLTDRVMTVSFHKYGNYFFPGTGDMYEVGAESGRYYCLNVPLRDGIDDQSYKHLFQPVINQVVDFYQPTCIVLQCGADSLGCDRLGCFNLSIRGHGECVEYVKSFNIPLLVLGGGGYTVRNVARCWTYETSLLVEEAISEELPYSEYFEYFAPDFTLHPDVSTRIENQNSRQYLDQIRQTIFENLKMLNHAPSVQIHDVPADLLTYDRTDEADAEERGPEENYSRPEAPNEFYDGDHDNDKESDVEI
T4 sequence (O75376 395-489 partner limits assumed): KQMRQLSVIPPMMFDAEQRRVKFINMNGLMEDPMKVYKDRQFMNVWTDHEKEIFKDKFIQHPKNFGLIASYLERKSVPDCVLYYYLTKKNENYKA

At ATX (autotaxin), `Nc1ccccc1NC(=O)c1ccc(COc2ccc3c(c2)CC/C(=C\c2cc(C(F)(F)F)cc(C(F)(F)F)c2)C3=O)cc1` [Compound 66, (E)-N-(2-aminophenyl)-4-(((6-(3,5-bis(trifluoromethyl)-benzylidene)-5-oxo-5,6,7,8-tetrahydronaphthalen-2-yl)oxy)methyl)benzamide] displayed an inhibition at 4 µM of under 50%, an inhibition at 20 µM of under 50% and an inhibition at 50 µM of under 50%. At HDAC2, the inhibition at 2 µM was under 50%, the inhibition at 10 µM is under 50% and the inhibition at 50 µM is under 50%. Further, at HDAC1, the inhibition at 2 µM is under 50%, the inhibition at 10 µM was under 50% and the inhibition at 50 µM is under 50%. In addition, at HDAC3, the inhibition at 2 µM is under 50%, the inhibition at 10 µM is under 50% and the inhibition at 50 µM was under 50%.
On ATX (autotaxin), `O=C(/C=C/c1ccc2c(c1)CCC2OCc1cc(C(F)(F)F)cc(C(F)(F)F)c1)NO` (stereo not drawn) [Compound 34, (E)-3-(1-((3,5-bis(trifluoromethyl)benzyl)oxy)-2,3-dihydro-1H-inden-5-yl)-N-hydroxyacrylamide] came in with an inhibition at 4 µM of under 50%, an inhibition at 20 µM of under 50% and an inhibition at 50 µM of under 50%. Moreover, on HDAC2, the inhibition at 2 µM fell in the range of 50 to 80%, the inhibition at 10 µM was over 80% and the inhibition at 50 µM is over 80%. Besides, at HDAC1, the inhibition at 2 µM is under 50%, the inhibition at 10 µM was over 80% and the inhibition at 50 µM is over 80%. On HDAC3, the inhibition at 2 µM was under 50%, the inhibition at 10 µM was in the range of 50 to 80% and the inhibition at 50 µM is over 80%.
Regarding `O=C(/C=C/c1ccc2c(c1)CCC2NC(=O)CCCCCCC(=O)NO)Nc1cc(Cl)cc(Cl)c1` (stereo not drawn) [Compound 42, (E)-N^1-(5-(3-((3,5-dichlorophenyl)amino)-3-oxoprop-1-en-1-yl)-2,3-dihydro-1H-inden-1-yl)-N^8-hydroxyoctanediamide], at ATX (autotaxin), the inhibition at 4 µM is under 50%, the inhibition at 20 µM was under 50% and the inhibition at 50 µM is over 80%. Further, at HDAC2, the inhibition at 2 µM fell in the range of 50 to 80%, the inhibition at 10 µM fell in the range of 50 to 80% and the inhibition at 50 µM is over 80%. On HDAC1, the inhibition at 2 µM is under 50%, the inhibition at 10 µM was in the range of 50 to 80% and the inhibition at 50 µM was over 80%. At HDAC3, the inhibition at 2 µM lay in the range of 50 to 80%, the inhibition at 10 µM is over 80% and the inhibition at 50 µM is 50 to 80%.
In the case of `O=C(CCCCCCC(=O)NC1CCc2cc(Br)ccc21)NO` (stereo not drawn) [Compound 40, N1-(5-bromo-2,3-dihydro-1H-inden-1-yl)-N8-hydroxyoctanediamide], on ATX (autotaxin), the inhibition at 4 µM is under 50%, the inhibition at 20 µM was under 50% and the inhibition at 50 µM was under 50%. On HDAC2, the inhibition at 2 µM is over 80%, the inhibition at 10 µM was over 80% and the inhibition at 50 µM was over 80%. In addition, at HDAC1, the inhibition at 2 µM lay within 50 to 80%, the inhibition at 10 µM was over 80% and the inhibition at 50 µM is over 80%. For the same compound, on HDAC3, the inhibition at 2 µM is over 80%, the inhibition at 10 µM is over 80% and the inhibition at 50 µM was over 80%.
Turning to `O=C(NO)c1ccc(COc2ccc3c(c2)CCC(Cc2cc(C(F)(F)F)cc(C(F)(F)F)c2)C3=O)cc1` (stereo not drawn) [Compound 68, 4-(((6-(3,5-bis(trifluoromethyl)benzyl)-5-oxo-5,6,7,8-tetrahydronaphthalen-2-yl)oxy)methyl)-N-hydroxybenzamide], on ATX (autotaxin), the inhibition at 4 µM was under 50%, the inhibition at 20 µM was under 50% and the inhibition at 50 µM is under 50%. Besides, on HDAC2, the inhibition at 2 µM was under 50%, the inhibition at 10 µM is under 50% and the inhibition at 50 µM is under 50%. Further, on HDAC1, the inhibition at 2 µM is under 50%, the inhibition at 10 µM is under 50% and the inhibition at 50 µM is under 50%. Moreover, on HDAC3, the inhibition at 2 µM is under 50%, the inhibition at 10 µM is under 50% and the inhibition at 50 µM is under 50%.
As to `O=C(/C=C/c1ccc2c(c1)CCC2NCCc1cc(C(F)(F)F)cc(C(F)(F)F)c1)NO` (stereo not drawn) [Compound 54, (E)-3-(1-((3,5-bis(trifluoromethyl)phenethyl)amino)-2,3-dihydro-1H-inden-5-yl)-N-hydroxyacrylamide], on ATX (autotaxin), the inhibition at 4 µM was under 50%, the inhibition at 20 µM is under 50% and the inhibition at 50 µM was under 50%. At HDAC2, the inhibition at 2 µM is over 80%, the inhibition at 10 µM was over 80% and the inhibition at 50 µM is over 80%. Further, on HDAC1, the inhibition at 2 µM is over 80%, the inhibition at 10 µM was over 80% and the inhibition at 50 µM is over 80%. Moreover, at HDAC3, the inhibition at 2 µM was over 80%, the inhibition at 10 µM was over 80% and the inhibition at 50 µM is over 80%.
At ATX (autotaxin), `Nc1cc(F)ccc1NC(=O)CCCCNC(=O)c1ccc2c(c1)CC/C(=C\c1cc(C(F)(F)F)cc(C(F)(F)F)c1)C2=O` [Compound 80] came in with an inhibition at 4 µM of under 50%, an inhibition at 20 µM of under 50% and an inhibition at 50 µM of 50 to 80%. On HDAC2, the inhibition at 2 µM was under 50%, the inhibition at 10 µM was under 50% and the inhibition at 50 µM was under 50%. At HDAC1, the inhibition at 2 µM is under 50%, the inhibition at 10 µM is under 50% and the inhibition at 50 µM was under 50%. Further, at HDAC3, the inhibition at 2 µM was under 50%, the inhibition at 10 µM is under 50% and the inhibition at 50 µM was under 50%.
Take `Nc1cc(F)ccc1NC(=O)c1ccc(COc2ccc3c(c2)CC(Cc2cc(C(F)(F)F)cc(C(F)(F)F)c2)C3=O)cc1` (stereo not drawn) [Compound 76, N-(2-amino-4-fluorophenyl)-4-(((2-(3,5-bis(trifluoromethyl)benzyl)-1-oxo-2,3-dihydro-1H-inden-5-yl)oxy)methyl)benzamide]: at ATX (autotaxin), the inhibition at 4 µM was under 50%, the inhibition at 20 µM is under 50% and the inhibition at 50 µM was under 50%. At HDAC2, the inhibition at 2 µM was under 50%, the inhibition at 10 µM is under 50% and the inhibition at 50 µM is under 50%. Further, on HDAC1, the inhibition at 2 µM was under 50%, the inhibition at 10 µM was under 50% and the inhibition at 50 µM is under 50%. Moreover, at HDAC3, the inhibition at 2 µM was under 50%, the inhibition at 10 µM is under 50% and the inhibition at 50 µM is under 50%.
On ATX (autotaxin), `Nc1cc(F)ccc1NC(=O)/C=C/c1ccc2c(c1)CCC2NC(=O)c1cc(C(F)(F)F)cc(C(F)(F)F)c1` (stereo not drawn) [Compound 21, (E)-N-(5-(3-((2-amino-4-fluorophenyl)amino)-3-oxoprop-1-en-1-yl)-2,3-dihydro-1H-inden-1-yl)-3,5-bis(trifluoromethyl)benzamide] displayed an inhibition at 4 µM of under 50%, an inhibition at 20 µM of under 50% and an inhibition at 50 µM of under 50%. For the same compound, at HDAC2, the inhibition at 2 µM is under 50%, the inhibition at 10 µM is under 50% and the inhibition at 50 µM is under 50%. At HDAC1, the inhibition at 2 µM was under 50%, the inhibition at 10 µM was under 50% and the inhibition at 50 µM was under 50%. At HDAC3, the inhibition at 2 µM was under 50%, the inhibition at 10 µM was under 50% and the inhibition at 50 µM is under 50%.
`COc1ccc(S(=O)(=O)NC2CCc3cc(/C=C/C(=O)NO)ccc32)cc1` (stereo not drawn) [Compound 20, (E)-N-hydroxy-3-(1-((4-methoxyphenyl)sulfonamido)-2,3-dihydro-1H-inden-5-yl)acrylamide]: on ATX (autotaxin), the inhibition at 4 µM was under 50%, the inhibition at 20 µM is under 50% and the inhibition at 50 µM is under 50%. Also, on HDAC2, the inhibition at 2 µM was in the range of 50 to 80%, the inhibition at 10 µM is over 80% and the inhibition at 50 µM is over 80%. Also, on HDAC1, the inhibition at 2 µM fell in the range of 50 to 80%, the inhibition at 10 µM was over 80% and the inhibition at 50 µM was over 80%. Also, at HDAC3, the inhibition at 2 µM was over 80%, the inhibition at 10 µM was over 80% and the inhibition at 50 µM is over 80%.
For the compound `Cc1[nH]c2ccccc2c1CCNC1CCc2cc(/C=C/C(=O)NO)ccc21` (stereo not drawn) [Compound 60, (E)-N-hydroxy-3-(1-((2-(2-methyl-1H-indol-3-yl)ethyl)amino)-2,3-dihydro-1H-inden-5-yl)acryl amide], on ATX (autotaxin), the inhibition at 4 µM is under 50%, the inhibition at 20 µM was under 50% and the inhibition at 50 µM was under 50%. In addition, at HDAC2, the inhibition at 2 µM is over 80%, the inhibition at 10 µM is over 80% and the inhibition at 50 µM was over 80%. Also, on HDAC1, the inhibition at 2 µM is over 80%, the inhibition at 10 µM is over 80% and the inhibition at 50 µM is over 80%. Besides, on HDAC3, the inhibition at 2 µM was over 80%, the inhibition at 10 µM was over 80% and the inhibition at 50 µM was over 80%.
For `Nc1cc(F)ccc1NC(=O)CCCCCNC(=O)c1ccc2c(c1)CC/C(=C\c1cc(C(F)(F)F)cc(C(F)(F)F)c1)C2=O` [Compound 78], at ATX (autotaxin), the inhibition at 4 µM is over 80%, the inhibition at 20 µM is over 80% and the inhibition at 50 µM is over 80%. For the same compound, on HDAC2, the inhibition at 2 µM is under 50%, the inhibition at 10 µM was under 50% and the inhibition at 50 µM is under 50%. In addition, on HDAC1, the inhibition at 2 µM was under 50%, the inhibition at 10 µM is under 50% and the inhibition at 50 µM was under 50%. For the same compound, at HDAC3, the inhibition at 2 µM is under 50%, the inhibition at 10 µM was under 50% and the inhibition at 50 µM is under 50%.
